According to patent US20240423206A1, “HERBICIDE TRANSPORT SYSTEM” (priority 2021, published 2024):

Assays:
[1] = powdered form, repeated inhalation of dust; cited from earlier work
[2] = Description: Pinoxaden (25 g) was added to the respective solvent (75 g) as set out in Table 1 and stirred at 50° C. for 1 hour. After cooling to room temperature (RT) the sample was visually checked for solid residues.
Where there were no residues and the resulting solution was a clear liquid the sample was considered as a “pass”.

Molecule	respiratory sensitisation [1]	Solubility [2]
CCc1cc(C)cc(CC)c1-c1c(OC(=O)C(C)(C)C)n2n(c1=O)CCOCC2 [pinoxaden]	respiratory sensitizer	
cyclohexanedicarboxylic acid, dinonyl ester		Fail
rapeseed oil		Fail
